Where two headings read alike, the source gives them in different places. Residues, ends and D or L forms follow the SMILES beside them.

One test addresses DR4Dw14 HLA-DR molecules. The test can be described thus: HLA-DR peptide binding assay (competition with biotinylated marker peptide), DR4Dw14. Set-up: species or system human. To be noted: pH = 5, 50 nM biotin-spacer-IHA(307-319)F marker peptide.
For test [1], the target named is T1, DR4Dw4 (DRB1*0401) HLA-DR molecules (Homo sapiens, UniProt P01903+P01911, A100K/A169T/F76Y/I96L/K127E/L162R/M171V/N62H/P40V/Q125Y/R42H/S133A/S149N/S66Y/V115G/V209L/W38E).
T1 construct: endogenous in cells; host or cells: BSM, EBV-transformed B-cell line
Put plainly: HLA-DR peptide binding assay (competition with biotinylated marker peptide), DR4Dw4. To be noted: pH = 5, 50 nM biotin-spacer-IHA(307-319)F marker peptide.

Regarding `CC(C)C[C@H](NC(=O)[C@H](CCCCN)NC(=O)[C@H](CC(C)C)NC(=O)[C@@H](NC(=O)[C@H](CC(N)=O)NC(=O)[C@H](CCC(N)=O)NC(=O)[C@H](CCCCN)NC(=O)[C@@H](NC(=O)[C@H](Cc1ccccc1)NC(=O)[C@H](CCCCN)NC(=O)[C@@H]1CCCN1)C(C)C)[C@@H](C)O)C(=O)N[C@@H](C)C(=O)N[C@H](C(=O)O)[C@@H](C)O` [IHA(307-319)F, reference compound] (H-PKFVKQNTLKLAT-OH), the IC50 (commonly the concentration that inhibits the measured activity by half) at DR4Dw14 HLA-DR molecules (DOT Blot, densitometer, read-out: ^R IC50, DR4Dw14, DOT Blot) turned out to be 530 nM; at DR4Dw14 HLA-DR molecules (SDS-PAGE, visual inspection, read-out: ^R IC50, DR4Dw14, SDS-PAGE) it was 300 nM; in test [1] (DOT Blot, densitometer, read-out: ^R IC50, DR4Dw4, DOT Blot), 550 nM; in test [1] (SDS-PAGE, visual inspection, read-out: ^R IC50, DR4Dw4, SDS-PAGE) it was 300 nM.
